Data published in patent publication US9573954B2, “Pyrazolopyrimidine compounds” (University Health Network, priority 2012, dated 2017).
Read-outs that look alike come from different tables or passages of the source.

Experiments:
[1] = biological target: T1, human TTK (Homo sapiens, UniProt P33981); assay: TTK inhibition assay (indirect ELISA); type: biochemical; settings: read-out: TTK IC50 Range
T1 construct: Active TTK was purchased from Invitrogen as an amino terminal GST fusion of full length human TTK; purchased Invitrogen
T1 sequence (P33981 1-857): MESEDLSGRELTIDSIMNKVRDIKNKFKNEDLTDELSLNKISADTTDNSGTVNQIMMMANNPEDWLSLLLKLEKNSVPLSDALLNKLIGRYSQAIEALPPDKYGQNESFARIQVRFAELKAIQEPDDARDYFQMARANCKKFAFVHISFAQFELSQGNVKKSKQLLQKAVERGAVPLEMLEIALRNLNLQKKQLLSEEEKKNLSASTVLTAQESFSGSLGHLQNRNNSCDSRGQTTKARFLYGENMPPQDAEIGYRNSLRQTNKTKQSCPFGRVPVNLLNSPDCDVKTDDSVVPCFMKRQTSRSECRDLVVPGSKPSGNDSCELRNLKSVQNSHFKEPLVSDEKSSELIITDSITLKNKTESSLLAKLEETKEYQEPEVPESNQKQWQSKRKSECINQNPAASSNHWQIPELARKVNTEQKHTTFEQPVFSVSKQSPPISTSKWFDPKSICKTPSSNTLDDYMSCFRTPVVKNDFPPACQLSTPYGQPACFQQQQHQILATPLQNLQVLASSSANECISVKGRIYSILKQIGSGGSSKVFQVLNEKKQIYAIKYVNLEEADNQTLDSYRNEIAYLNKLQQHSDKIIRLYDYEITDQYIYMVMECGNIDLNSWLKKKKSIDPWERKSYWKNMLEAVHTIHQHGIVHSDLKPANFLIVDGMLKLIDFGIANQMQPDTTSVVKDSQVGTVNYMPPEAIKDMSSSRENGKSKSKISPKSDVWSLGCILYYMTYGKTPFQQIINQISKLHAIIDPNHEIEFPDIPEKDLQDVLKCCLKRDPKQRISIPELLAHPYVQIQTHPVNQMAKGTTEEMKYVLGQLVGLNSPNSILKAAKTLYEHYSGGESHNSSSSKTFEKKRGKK
Summary of the method: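 Activity detected by indirect ELISA after compounds sat with full-length GST-TTK for 5 min prior to starting the reaction with ATP. IC50 came from a four-parameter logistic curve of % inhibition, calculated against background and uninhibited control wells.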

[2] = test system: colon cancer cells (HCT116); assay: Cancer cell line growth inhibition, Sulforhodamine B assay, HCT116; type: cell-based; settings: Homo sapiens, read-out: Cancer Cell Line GI50 Range HCT116
Summary of the method: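 GI50 is calculated from growth inhibition relative to DMSO controls, using TCA-fixed, SRB-stained protein mass read at 570 nm. Compound, 10 nM–50 μM final in 10% FBS DMEM, was applied for 5 days to HCT116 cells that had been plated 24 h before at 1000–4000/well.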

[3] = test system: breast cancer cells (MDA-MB-468); assay: Cancer cell line growth inhibition, Sulforhodamine B assay, MDA-MB-468; type: cell-based; settings: Homo sapiens, read-out: Cancer Cell Line GI50 Range MDA-MB-468
Summary of the method: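 Sulforhodamine B staining (TCA-fixed, read at 570 nm) estimates cell mass after 5-day compound treatment of MDA-MB-468 cells, final concentrations 10 nM to 50 μM in 10% FBS DMEM. GI50 derived from growth inhibition versus DMSO controls.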

[4] = test system: ovarian cancer cells (PA-1); assay: Cancer cell line growth inhibition, Sulforhodamine B assay, PA-1; type: cell-based; settings: 120 h; Table 1; PA-1, 5 days, SRB; read-out: Cancer Cell Line GI50 Range PA-1
Experimental: Breast cancer cells (MDA-MB-231 and MDA-MB-468), colon cancer cells (HCT116) and ovarian cancer cells (PA-1 and OVCAR-3) were seeded (1000 to 4000 in 80 μl per well depending on the cell growth rate) into 96 well plates 24 hours before compound overlay. Compounds were prepared as 10 mM stock solutions in 100% DMSO which were diluted with DMEM (Dulbecco's Modified Eagle's Medium) cell growth Medium (Invitrogen, Burlington, ON, Canada) containing 10% FBS (Fetal Bovine Serum) to concentrations ranging from 50 nM to 250 μM. Aliquots (20 μl) from each concentration were overlaid to 80 μl of the pre-seeded cells in the 96 well plates to make final concentrations of 10 nM to 50 μM. The cells were cultured for 5 days before the Sulforhodamine B assay (SRB) was performed to determine the compound's cell growth inhibition activity.
Sulforhodamine B (purchased from Sigma, Oakville, ON, Canada) is a water-soluble dye that binds to the basic amino acids of the cellular proteins. Thus, colorimetric measurement of the bound dye provides an estimate of the total protein mass that is related to the cell number. the cells are fixed in situ by gently aspirating off the culture media and adding 50 μl ice cold 10% Trichloroacetic Acid (TCA) per well and incubate at 4° C. for 30-60 min, The plates are washed with H2O five times and allowed to air dry for 5 min. Addition of 50 μl 0.4% (w/v) SRB solution in 1% (v/v) acetic acid to each well and incubation for 30 min at RT completes the staining reaction. Following staining, plates are washed four times with 1% acetic acid to remove unbound dye and then allowed to air dry for 5 min. The stain is solubilized with 100 μl of 10 mM Tris pH 10.5 per well. Absorbance is read at 570 nm.
The percentage (%) of relative growth inhibition was calculated by comparing to DMSO treated only cells (100%). GI50's were determined for compounds with cytotoxic activity. The GI50 was calculated using GraphPad PRISM software (GraphPad Software, Inc., San Diego, Calif., USA).
In Table 1 below, GI50 value ranges for compound examples against breast cancer cell lines (MDA-MB-468), colon cancer cell lines (HCT116) and ovarian cancer cell lines (PA-1) are given.
In Table 2 below, GI50 value ranges for compound examples against breast cancer cell lines (MDA-MB-231), colon cancer cell lines (HCT116) and ovarian cancer cell lines (PA-1) are given.

[5] = test system: Ovarian 2393A tumor initiating cells; assay: Tumor-initiating cell growth inhibition, Alamar Blue assay, ovarian TICs; type: cell-based; settings: 144 h, 6 days, read-out: Tumor Initiating Cell GI50 Range Ovarian 2393A
From the text: (§1) Non-tissue or tissue cultured treated T-75 flask and 96-well plates were purchased from VWR. Vitamin B-27 supplement, MEM NEAA (minimum essential medium non essential amino acids), sodium pyruvate, L-glutamine, N2 supplement, penicillin-streptomycin and fungizone/amphotericin B were obtained from Invitrogen. Lipid mixture, heparin and EGF were purchased from Sigma; bFGF from BD Biosciences. Tumor Initiating Cells (TICs) from colon were routinely maintained using non-tissue cultured treated T-75 flasks in DMEM:F12 medium containing 0.2XB-27 supplement, 4 ug/ml heparin, 1×MEM NEAA, 1×sodium pyruvate, 1 mM glutamine, 10 pg/ul bFGF, 20 pg/ul EGF, 1× N2 supplement, lipid mixture, penicillin-streptomycin and fungizone/amphotericin B. Ovarian TICs were routinely maintained using tissue cultured treated T-75 flasks in DMEM:F12 medium containing IXB-27 supplement, 4 ug/ml heparin, 20 pg/ul bFGF, 20 pg/ul EGF and penicillin-streptomycin.
(§2) Compounds described herein were dissolved in DMSO and further diluted in cell culture medium for GI50 determination. Colon TICs were trypsinized and seeded into non-tissue cultured treated 96-well plates with 4,000 cells/well. After 24 h, compound was added into the cell culture at different concentrations, and the final concentration of DMSO was adjusted to 0.1%. Cells were then cultured at 37° C. for 9 days. Ovarian TICs were trypsinized and seeded into tissue cultured treated 96-well plates with 1,000 cells/well. After 24 h, compound was added into the cell culture at different concentrations, and the final concentration of DMSO was adjusted to 0.1%. Cells were then cultured at 37° C. for 6 days. Cell viability was assessed by Alamar Blue assay: 10 ul of Alamar Blue was added into each well. After 4 hours incubation at 37° C., fluorescence was recorded at excitation 544 and emission 590. GI50 (Growth inhibition) was calculated using GraphPad Prism 4.0 software.
(§3) In Table 1 below, GI50 value ranges for compound examples against TICs (Colon 12 and Ovarian 2393A) are given.

[6] = test system: Colon 12 tumor initiating cells; assay: Tumor-initiating cell growth inhibition, Alamar Blue assay, colon TICs; type: cell-based; settings: 216 h, 9 days, read-out: Tumor Initiating Cell GI50 Range Colon 12
From the text: as §1, §2, §3

[7] = test system: ovarian cancer cells (OVCAR-3); assay: Cancer cell line growth inhibition, Sulforhodamine B assay, OVCAR-3; type: cell-based; settings: Homo sapiens, OVCAR-3, OVCAR-3 ovarian cancer cell line; read-out: Cancer Cell Line GI50 Range OVCAR-3
Summary of the method: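 OVCAR-3 cells were seeded 24 h before compound addition, then exposed for 5 days to final concentrations of 10 nM to 50 μM in DMEM with 10% FBS. Growth was measured by TCA fixation and sulforhodamine B staining with absorbance at 570 nm. Inhibition was relative to DMSO-only cells, and GI50 came from curve fitting.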

[8] = HCT-116, 120 h, Table 1, HCT116, 5 days, SRB
[9] = MDA-MB-468, 120 h, Table 1, MDA-MB-468, 5 days, SRB
[10] = Table 1, ovarian TICs, Alamar Blue
[11] = Table 1, colon TICs, Alamar Blue
[12] = HCT-116, HCT116 colon cancer cell line
[13] = MDA-MB-468, MDA-MB-468 breast cancer cell line

SMILES	IC50 ([1]; Table 1, 16 μM ATP (asterisk))	GI50 [2, 8]	GI50 [3, 9]	GI50 [4]	GI50 [5, 10]	GI50 [6, 11]	IC50 ([1]; 100 μM ATP)	GI50 [2, 12]	GI50 [3, 13]	GI50 [7]	GI50 ([5]; Ovarian 2393A TICs)	GI50 ([6]; Colon 12 TICs)
Cc1cc(-c2cnn3c(NCC4CCOCC4)nc(NC4CCCC4)nc23)ccc1C(=O)NC1CC1 [Example A2, 4-(2-(Cyclopentylamino)-4-(((tetrahydro-2H-pyran-4-yl)methyl)amino)pyrazolo[1,5-a][1,3,5]triazin-8-yl)-N-cyclopropyl-2-methylbenzamide]	< 100 nM	100 to 500 nM	100 to 500 nM	≤ 100 nM	100 to 500 nM	≤ 100 nM	–	–	–	–	–	–
Cc1cc(-c2cnn3c(NCC4CCOCC4)nc(Oc4ccccc4)nc23)ccc1C(=O)NC1CC1 [Example A3, N-cyclopropyl-2-methyl-4-(2-phenoxy-4-(((tetrahydro-2H-pyran-4-yl)methyl)amino)pyrazolo[1,5-a][1,3,5]triazin-8-yl)benzamide]	< 100 nM	≤ 100 nM	≤ 100 nM	≤ 100 nM	100 to 500 nM	≤ 100 nM	–	–	–	–	–	–
O=C(NC1CC1)c1ccc(-c2cnn3c(NCC4CCOCC4)nc(Oc4ccccc4)nc23)cc1Cl [Example A4, 2-Chloro-N-cyclopropyl-4-(2-phenoxy-4-(((tetrahydro-2H-pyran-4-yl)methyl)amino)pyrazolo[1,5-a][1,3,5]triazin-8-yl)benzamide]	< 100 nM	100 to 500 nM	100 to 500 nM	100 to 500 nM	100 to 500 nM	≤ 100 nM	–	–	–	–	–	–
O=C(NC1CC1)c1ccc(-c2cnn3c(NCCN4CCOCC4)nc(Oc4cccnc4)nc23)cc1 [Example A8, N-cyclopropyl-4-(4-((2-morpholinoethyl)amino)-2-(pyridin-3-yloxy)pyrazolo[1,5-a][1,3,5]triazin-8-yl)benzamide]	> 500 nM	> 500 nM	> 500 nM	> 500 nM	–	–	–	–	–	–	–	–
O=C(NC1CC1)c1ccc(-c2cnn3c(NCC4CCOCC4)nc(Oc4ccccc4)nc23)cc1 [Example A10, N-cyclopropyl-4-(2-phenoxy-4-(((tetrahydro-2H-pyran-4-yl)methyl)amino)pyrazolo[1,5-a][1,3,5]triazin-8-yl)benzamide]	< 100 nM	100 to 500 nM	> 500 nM	100 to 500 nM	–	–	–	–	–	–	–	–
O=C(NC1CC1)c1ccc(-c2cnn3c(NCC4CCOCC4)nc(OC4CCCC4)nc23)cc1 [Example A11, 4-(2-(cyclopentyloxy)-4-(((tetrahydro-2H-pyran-4-yl)methyl)amino)pyrazolo[1,5-a][1,3,5]triazin-8-yl)-N-cyclopropylbenzamide]	< 100 nM	100 to 500 nM	> 500 nM	100 to 500 nM	–	–	–	–	–	–	–	–
O=C(NC1CC1)c1ccc(-c2cnn3c(NCC4CCOCC4)nc(Oc4cccnc4)nc23)cc1 [Example A13, N-cyclopropyl-4-(2-(pyridin-3-yloxy)-4-(((tetrahydro-2H-pyran-4-yl)methyl)amino)-pyrazolo[1,5-a][1,3,5]triazin-8-yl)benzamide]	< 100 nM	> 500 nM	> 500 nM	100 to 500 nM	–	–	–	–	–	–	–	–
Cc1cc(-c2cnn3c(NC[C@H]4CC[C@H](O)CC4)cc(Oc4cccnc4)nc23)ccc1C(=O)NC1CC1 [Example C177]	–	–	–	–	–	–	< 100 nM	100 to 500 nM	100 to 500 nM	100 to 500 nM	≤ 100 nM	≤ 100 nM
Cc1cc(-c2cnn3c(NCCN4CCC(O)CC4)cc(Oc4cccc(F)c4)nc23)ccc1C(=O)NC1CC1 [Example C182]	–	–	–	–	–	–	< 100 nM	≤ 100 nM	≤ 100 nM	≤ 100 nM	≤ 100 nM	≤ 100 nM
Cc1cc(-c2cnn3c(NCCN(C)C)cc(Oc4cccc(F)c4)nc23)ccc1C(=O)NC1CC1 [Example C187]	–	–	–	–	–	–	< 100 nM	≤ 100 nM	≤ 100 nM	100 to 500 nM	≤ 100 nM	≤ 100 nM
